We go through 2 compounds from paper PMC5660230, “Combined x-ray crystallography and computational modeling approach to investigate the Hsp90 C-terminal peptide binding to FKBP51” (Scientific Reports, 2017).

Entries after “also recorded” stand apart in the source; their conditions may differ. Residues, ends and D or L forms follow the SMILES beside them.

One experiment has as its target T1, FKBP51 (TPR domain) (Homo sapiens, UniProt Q13451).
T1 construct: FKBP51 full length DNA (IMAGE cDNA clone: 5753397 5′) was PCR amplified; GST (N, cleaved yes); made in house; host or cells: E. coli BL21
T1 sequence (Q13451 1-457): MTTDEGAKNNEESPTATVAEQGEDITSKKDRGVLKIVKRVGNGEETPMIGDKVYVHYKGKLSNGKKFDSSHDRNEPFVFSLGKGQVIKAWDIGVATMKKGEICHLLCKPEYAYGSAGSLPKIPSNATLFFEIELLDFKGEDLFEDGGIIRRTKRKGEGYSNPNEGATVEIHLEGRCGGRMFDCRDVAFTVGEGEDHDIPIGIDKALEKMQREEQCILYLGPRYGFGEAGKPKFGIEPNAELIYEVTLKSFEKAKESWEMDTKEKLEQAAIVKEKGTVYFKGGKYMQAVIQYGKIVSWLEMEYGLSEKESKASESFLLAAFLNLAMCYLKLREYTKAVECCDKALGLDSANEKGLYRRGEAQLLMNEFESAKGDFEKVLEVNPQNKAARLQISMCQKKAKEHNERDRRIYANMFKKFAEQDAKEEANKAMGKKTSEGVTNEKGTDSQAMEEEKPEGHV
The experiment in a line: Differential scanning fluorimetry (DSF), dissociation constant of FKBP51-C90 complex under thermal denaturation. The experiment is classed as binding. Here is the method: (§1) Differential scanning fluorimetry was performed using Bio-Rad CFX96 qPCR following a well-established protocol. Briefly, 25 µl of solution containing purified FKBP51 at a concentration of 0.1 mg/ml, 5X SYPRO orange (Life Technologies), and Hsp90 C-terminal peptide ranging from 0–500 µM in 0.5X PBS was transferred to a 96-well PCR plate in triplicate. The plate was centrifuged, sealed and the fluorescence was measured using the FRET channel between 20 and 80 °C with an increment of 0.2 °C in each cycle. The melting temperature was determined from the first derivative peaks of the melting curve using Bio-Rad CFX96 manager software. Further, the dissociation constant of the complex between FKBP51 and C90 was determined by fitting the resulting data using single site ligand binding model[35] with the bottom (T1) and top (T2) temperatures fitting to 43.8 and 48.5 °C, respectively. The concentration of FKBP51 (2 µM) was used as the value of the constant P. The fitting was performed using GraphPad Prism, version 7.02. Additionally, we incubated the FKBP51 with 200 µM of control peptide (DDDDDDDDDD) in a similar way.
Background: In DSF a fluorescence change marks the thermal transition of the protein.

The subject of another experiment is FKBP51. The experiment in a line: Differential scanning fluorimetry (DSF), melting temperature shift of FKBP51. As to conditions: FKBP51 0.1 mg/ml, 5X SYPRO orange, 0.5X PBS. The experiment is classed as binding, human. Here is the method:
as §1

In general, Kd refers to the equilibrium constant for the complex coming apart. High values mean weaker binding, low ones tighter binding. For `CSCC[C@H](NC(=O)[C@H](CCCNC(=N)N)NC(=O)[C@H](CO)NC(=O)[C@@H](NC(=O)[C@H](CC(=O)O)NC(=O)[C@H](Cc1c[nH]cn1)NC(=O)[C@H](Cc1c[nH]cn1)NC(=O)[C@H](Cc1c[nH]cn1)NC(=O)[C@H](Cc1c[nH]cn1)NC(=O)[C@H](Cc1c[nH]cn1)NC(=O)[C@@H](N)Cc1c[nH]cn1)[C@@H](C)O)C(=O)N[C@@H](CCC(=O)O)C(=O)N[C@@H](CCC(=O)O)C(=O)N[C@H](C(=O)N[C@@H](CC(=O)O)C(=O)O)C(C)C` [C90] (H-HHHHHHDTSRMEEVD-OH), the Kd on FKBP51 (TPR domain) (DSF under thermal denaturation, full-length FKBP51 0.1 mg/ml (2 µM), 5X SYPRO orange, 0.5X PBS, C90 0–250 µM / 0–500 µM (method), triplicate, 20–80 °C, 0.2 °C increments, Tm by first derivative, single site ligand binding model, T1 43.8 and T2 48.5 °C, R^2 0.99) worked out at 70 ± 32 µM. Also, at FKBP51 (TPR domain) (DSF value of FKBP51-C90 complex compared with literature value of FKBP38-MEEVD peptide), the “dissociation constant compared with reported FKBP38-MEEVD peptide” value was “very similar to the reported dissociation constant of FKBP38-MEEVD peptide”. Further, in the experiment on FKBP51 (C90 250 µM vs 0 µM, triplicate, first derivative of melting curve), the “ΔTm (first melting point)” value turned out to be 4.8 °C. Moreover, in the experiment on FKBP51 (C90 250 µM, triplicate, without peptide 44 °C / 43.8 °C), the “first melting point of FKBP51 in presence of peptide” value came out at 48.6 °C. In the experiment with FKBP51 (C90 250 µM, triplicate, without peptide 58.6 °C / 57.8 °C), the “second melting point of FKBP51 in presence of peptide” value is listed as “without much change in the second melting point; also recorded: without affecting the second melting point”.

Take “H-DDDDDDDDDD-OH [control peptide, reference compound]”: the “change in melting point of FKBP51 (control peptide)” value with FKBP51 (control peptide 200 µM vs 0 µM) is “did not lead to any change in the melting point of FKBP51”.
